Assay results taken from patent US7504406B2, “Derivatives of pyrido[2,3-d]pyrimidine, the preparation thereof, and the therapeutic application of the same” (Sanofi-Aventis, priority 2005, dated 2009).
pIC50: −log10 of the molar value.

Assays:
Type in all cases: cell-based
K-562 line = test: MTS cell proliferation and viability test, K-562 line; settings: Homo sapiens, K562, K-562 leukaemia line, 72 hours of incubation, read-out: IC50 (50% loss of cell proliferation and cell viability)
Description: The compounds of formula (I) according to the present invention were tested in vitro on a panel of tumour lines of human origin, originating: • from breast cancer: MDA-MB231 (American Type culture collection, Rockville, Md., USA, ATCC-HTB26), MDA-A1 or MDA-ADR (called multi-drug resistant MDR line, and described by E. Collomb et al., in Cytometry, 12(1):15-25, 1991), and MCF7 (ATCC-HTB22), • from prostate cancer: DU145 (ATCC-HTB81) and PC3 (ATCC-CRL1435), • from colon cancer: HCT116 (ATCC-CCL247) and HCT15 (ATCC-CCL225), • from lung cancer: H460 (described by Carmichael in Cancer Research 47 (4):936-942, 1987 and provided by the National Cancer Institute, Frederick Cancer Research and Development Center, Frederick, Md., USA), • from glioblastoma: SF268 (described by Westphal in Biochemical & Biophysical Research Communications 132 (1): 284-289, 1985 and provided by the National Cancer Institute, Frederick Cancer Research and Development Center, Frederick, Md., USA), • from leukaemia: CMLT1 (described by Kuriyama et al. in Blood, 74: 1989, 1381-1387, by Soda et al. in British Journal of Haematology, 59: 1985, 671-679 and by Drexler, in Leukemia Research, 18: 1994, 919-927 and provided by the company DSMZ (Deutsche Sammlung von Mikroorganismen und Zellkulturen GmbH) Mascheroder Weg 1b, 38124 Braunschweig, Germany), K-562 (described by Lozzio et al., J Natl Cancer Inst 50: 535 (1973), by Lozzio et al., Blood 45: 321 (1975), and provided by DSMZ No. ACC 10), KG-1a (described by Koeffler et al., Blood 56: 265 (1980), and provided by DSMZ No. ACC 421), and Kasumi-1 (described by Asou et al., Blood 77: 2031 (1991), and provided by DSMZ No. ACC 220).
The cell proliferation and viability were determined in a test using 3-(4,5-dimethylthiazol-2-yl)-5-(3-carboxymethoxyphenyl)-2-(4-sulphophenyl)-2H-tetrazolium (MTS) according to Fujishita T. et al., Oncology, 2003, 64 (4), 399-406. In this test, the mitochondrial ability of the live cells to convert MTS to a coloured compound is measured after 72 hours of incubation of a compound of formula (I) according to the invention. The concentrations of compound according to the invention which result in a 50% loss of cell proliferation and cell viability (IC50) are between 1 nM and 10 μM, depending on the tumor line and the compound tested. For example, compound No. 1 has an IC50 of 40 nM on the K-562 line, an IC50 of 50 nM on the KG-1a line and an IC50 of 40 nM on the Kasumi-1 line.

KG-1a line = test: MTS cell proliferation and viability test, KG-1a line; settings: Homo sapiens, KG-1a leukaemia line, 72 hours of incubation, read-out: IC50 (50% loss of cell proliferation and cell viability)
Description: […]
(§1) The cell proliferation and viability were determined in a test using 3-(4,5-dimethylthiazol-2-yl)-5-(3-carboxymethoxyphenyl)-2-(4-sulphophenyl)-2H-tetrazolium (MTS) according to Fujishita T. et al., Oncology, 2003, 64 (4), 399-406. In this test, the mitochondrial ability of the live cells to convert MTS to a coloured compound is measured after 72 hours of incubation of a compound of formula (I) according to the invention. […]

Kasumi-1 line = test: MTS cell proliferation and viability test, Kasumi-1 line; settings: Homo sapiens, Kasumi-1 leukaemia line, 72 hours of incubation, read-out: IC50 (50% loss of cell proliferation and cell viability)
Description: […]
as §1

SF268 = test: MTS cell proliferation and viability test, SF268 line; settings: Homo sapiens, SF-268, SF268 glioblastoma line, 72 hours of incubation, read-out: IC50 (50% loss of cell proliferation and cell viability)
Description: […]
as §1

Row | SMILES | pIC50 (K-562 line) | pIC50 (KG-1a line) | pIC50 (Kasumi-1 line) | pIC50 (SF268)
1 | CC(C)(C)NC(=O)Nc1nc2nc(Nc3ccc4ncnn4c3)ncc2cc1-c1c(Cl)cccc1Cl [Compound No. 9, N-[6-(2,6-dichlorophenyl)-2-([1,2,4]triazolo[1,5-a]pyridin-6-ylamino)pyrido[2,3-d]pyrimidin-7-yl]-N′-(1,1-dimethylethyl)urea] | 7.72 |  |  | 
2 | CCNC(=O)Nc1nc2nc(Nc3ccc4nsnc4c3)ncc2cc1-c1c(Cl)cccc1Cl [Compound No. 13, N-[2-(2,1,3-benzothiadiazol-5-ylamino)-6-(2,6-dichlorophenyl)pyrido[2,3-d]pyrimidin-7-yl]-N′-ethylurea] | 7.13 |  |  | 
3 | CCN(CC)Cc1cc2cc(Nc3ncc4cc(-c5c(Cl)cccc5Cl)c(NC(=O)NC(C)(C)C)nc4n3)ccc2o1 [Compound No. 5, N-[6-(2,6-dichlorophenyl)-2-[[2-[(diethylamino)methyl]-5-benzofuranyl]amino]pyrido[2,3-d]pyrimidin-7-yl]-N′-(1,1-dimethylethyl)urea] | 8.30 |  |  | 
4 | CC(C)(C)NC(=O)Nc1nc2nc(Nc3ccc4nsnc4c3)ncc2cc1-c1c(Cl)cccc1Cl [Compound No. 1, N-[2-(2,1,3-benzothiadiazol-5-ylamino)-6-(2,6-dichlorophenyl)pyrido[2,3-d]pyrimidin-7-yl]-N′-(1,1-dimethylethyl)urea] | 7.40 | 7.30 | 7.40 | 
5 | CC(C)(C)NC(=O)Nc1nc2nc(Nc3ccc4oc(CN)nc4c3)ncc2cc1-c1c(Cl)cccc1Cl [Compound No. 7, N-[2-[[2-(aminomethyl)-5-benzoxazolyl]amino]-6-(2,6-dichlorophenyl)pyrido[2,3-d]pyrimidin-7-yl]-N′-(1,1-dimethylethyl)urea] |  |  |  | 7.37
